Experimental findings from patent publication US8895069B2, “Drug delivery system using hyaluronic acid-peptide conjugate micelle” (Postech Academy-Industry Foundation, priority 2011, dated 2014) are described below.

Ends that are not written are not given here.

The nature of data set [1]: TEM particle size of micelle. It is filed as physicochemical. Conditions: spherical particle, n=30. The method, then: The anti-Flt1 peptide (GGNQWFI) (SEQ ID NO: 3) and the hyaluronic acid-peptide conjugate with a lower peptide content as prepared from Preparation Example 3 were dissolved in 4004, of PBS to have a final peptide concentration of 1.25 mg/mL, respectively. The amount of the anti-Flt1 peptide contained in each solution was measured with a changeable UV transilluminator (DUT-260, Core Bio System, Korea) by using 312 nm of light source. The formation of the hyaluronic acid-peptide micelle in an aqueous solution was confirmed by using a transmission electron microscope (TEM) (Hitachi, Tokyo, Japan). For a TEM analysis, 10 μL of the hyaluronic acid-peptide conjugate solution was dropped onto a 300 mesh copper TEM grid with a carbon film and then was dried. The average particle size was calculated out from the diameters obtained from the images of 30 particles.
For a transmission electron microscope (TEM) (Hitachi, Tokyo, Japan) analysis, 10 μL of the solution of the drug-loaded, hyaluronic acid-peptide conjugate micelle was dropped onto a 300 mesh copper TEM grid with a carbon film and then was dried.

Data set [2] relates to lung inflammation. The experiment in a line: Bronchoalveolar lavage (BAL) cellularity in OVA/LPS asthma model. The conditions noted are these: intranasal. It counts as in vivo, BALB/c mice. As to the method:
As the laboratory mouse, BALB/c mice (female, 6 week old, 5 per each group) were used. Five groups consisted of a normal control group (PBS-PBS: wherein asthma was not induced and the mice were treated with PBS), a negative control group (OVA/LPS10-OVA: wherein asthma was induced by using OVA and LPS, and the mice were treated with PBS only), a hyaluronic acid test group, an anti-Flt1 peptide (GGNQWFI) (SEQ ID NO: 3) test group, and a test group of the hyaluronic acid-peptide conjugate obtained from Preparation Example 3. The dose of the hyaluronic acid-peptide conjugate was changed between 10 […].
First, in order to make a mouse asthma model, each mouse was sensitized by intranasal administration of 75 μg of ovalbumin (OVA) (Calbiochem, La Jolla, Calif.) and 10 μg of lipopolysaccharide (LPS) (Calbiochem, La Jolla, Calif.) on 0 day, the first day, the second day, and the 7th day. Then, OVA (50 ug/head), hyaluronic acid (500 μg/head), anti-Flt1 peptide (GGNQWFI) (SEQ ID NO: 3) (10, 30, 100, 300, 1000 μg/head), and the hyaluronic acid-peptide conjugate with a low peptide content prepared from Preparation Example 3 ([…], based on the peptide content) were intranasally administered, respectively, after 14 days, 15 days, 21 days, 22 days to challenge. […]

In data set [3] the test system is corneal neovascularization. The experiment in a line: Corneal neovascularization, genistein-loaded micelle (Experimental Example 13). It counts as in vivo, Albino Sprague Dawley male rats. Conditions: rat cornea; samples in PBS: Avastin 10 mg/ml, conjugate and micelle 3.2 mg/ml peptide; control group 86%.
Data set [4] relates to retinal and choroidal neovascularization (CNV). The experiment in a line: Laser-induced retinal and choroidal neovascularization (CNV). It is filed as in vivo, Brovin-Norway (BN) male rats. The conditions noted are these: negative control = 100%; intravitreal 10 μL, peptide concentration 10 mg/ml; 2 weeks after laser; conjugate = higher peptide content. As to the method:
Four groups consisted of a negative control group, a hyaluronic acid test group, an anti-Flt1 peptide (GGNQWFI) (SEQ ID NO: 3) test group, a test group of the hyaluronic acid-peptide conjugate with a higher peptide content as prepared from Preparation Example 3 (HA-GGNQWFI(2)). The anti-Flt1 peptide sample and the hyaluronic acid-peptide conjugate sample were made to have an identical peptide concentration of 10 mg/ml. First, the rat was put under anesthesia by being treated with 0.2 mL of a mixed solution (1:1) of 100 mg/ml of ketamine hydrochloride and 20 mg/ml of xylazine hydrochloride. […] The effect of inhibiting retinal and choroidal neovascularization was determined with a fluorescence microscope analysis using dextran-FITC (MW=40,000) after 2 weeks from the laser-induced damage. After being put under anesthesia, the rat was injected with 500 μL of a dextran-FITC solution (25 mg/mL) at its tail vein, and in 5 minutes, the choroid was separated and observed with a fluorescence microscope equipped with a digital camera (Olympus, Tokyo, Japan). The obtained images were analyzed with Image J program (NIH, Bethesda, Md.).

Turning to “HA-GGNQWFI: hyaluronic acid (MW 100 kDa) conjugated with GGNQWFI, 20 peptides per one molecule of HA-TBA (also: conjugated to hyaluronic acid, about 20 peptides per HA)”, the “average diameter by TEM” value in data set [1] amounted to 234.5±20.6 nm. Besides, the “bronchoalveolar lavage (BAL) cellularity” value in data set [2] (1000 μg/head) is listed as “less than half of the cellularity in the negative control group”. For the same substance, the “bronchoalveolar lavage (BAL) cellularity, dose dependence” value in data set [2] (10-1000 per head based on peptide content) is “sharply decreased and was found to be dose-dependent”. In data set [3], the “average ratio of the neovascular area” value is given as 30%.

As to GGNQWFI [anti-Flt1 peptide, GGNQWFI], the “average intensity of the fluorescence of CNV lesion” value in data set [4] is 61.4±4.4%.
